Results from article PMC7407272, “Induction of Lysosome Membrane Permeabilization as a Therapeutic Strategy to Target Pancreatic Cancer Stem Cells” (Cancers, 2020).
pEC50: −log10 of the molar value.

Experiments:
PDAC1 3D spheres = assay: Viability curves on PDAC1 3D spheres; assay type: cell-based; conditions: Homo sapiens, 30 h
Text: The PDAC patient-derived xenograft (PDX) Panc354 (referred to hereafter as PDAC3) was obtained from Dr. Manuel Hidalgo under a Material Transfer Agreement with the Spanish National Cancer Centre (CNIO), Madrid, Spain (Reference no. I409181220BSMH). PDAC1, PDAC2 and PDAC4 PDXs were established from primary patient resected tumors. Samples were provided by the BioBank Hospital Ramón y Cajal-IRYCIS (PT13/0010/0002), integrated in the Spanish National Biobanks Network and they were processed following standard operating procedures with the appropriate approval of the Ethical and Scientific Committees (Control no. No. Control: DE-BIOB-73 AC65, RG.BIOB-96 REV, and CI-BIOB-08-10-01 rev), with informed consent and according to Declaration of Helsinki principles. […]
Pancreatic CSC spheres were generated as previously described in ultra-low attachment plates (Corning) using CSC media: serum-free DMEM/F12 medium (1:1; #21331-020; Gibco, Waltham, MA, USA), supplemented with Pen/Strep (1:100; #1500-063; Gibco, Waltham, MA, USA), Fungizone (1:250; #15290-018; Gibco), L-Glutamine (1:100; #25030-024; Gibco, Waltham, MA, USA), B-27 (1:50; #17504-044; Gibco, Waltham, MA, USA) and basic fibroblast growth factor (FGF-b) (1:5000; Gibco, Waltham, MA, USA). […] To quantify spheres of > 40 μm, 1 mL of sample volume was analyzed with a CASY® Cell Counter (Roche Applied Sciences, Mannheim, Germany). […]

PDAC4 cultures = assay: Sphere formation assay; assay type: cell-based, human; conditions: 0.1 µg/mL GEM or Cpd 1 at 1.25 or 2.5 µM
Text: (§1) Pancreatic CSC spheres were generated as previously described in ultra-low attachment plates (Corning) using CSC media: serum-free DMEM/F12 medium (1:1; #21331-020; Gibco, Waltham, MA, USA), supplemented with Pen/Strep (1:100; #1500-063; Gibco, Waltham, MA, USA), Fungizone (1:250; #15290-018; Gibco), L-Glutamine (1:100; #25030-024; Gibco, Waltham, MA, USA), B-27 (1:50; #17504-044; Gibco, Waltham, MA, USA) and basic fibroblast growth factor (FGF-b) (1:5000; Gibco, Waltham, MA, USA). All cell culture was carried out at 37 °C in a 5% CO2 humidified incubator. To quantify spheres of > 40 μm, 1 mL of sample volume was analyzed with a CASY® Cell Counter (Roche Applied Sciences, Mannheim, Germany). The CASY® Cell Counter measuring principle is based on a capillary particle counter with pulse area analysis, that permits the determination of cell count, cell concentration, cell volume (peak), and average cell diameter, specifically diameters of 40–80 μm, 80–120 μm and >120 μm.

PDAC2 cultures = assay: Sphere formation assay; assay type: cell-based, human; conditions: 0.1 µg/mL GEM or Cpd 1 at 1.25 or 2.5 µM
Text: as §1

DCAMKL2 = biological target: T1, DCAMKL2 (Homo sapiens, UniProt Q8N568); assay: KINOMEscan; assay type: binding; conditions: read-out: % Ctrl
T1 construct: purchased DiscoveRx KINOMEscan

DAPK3 = biological target: T2, DAPK3 (Homo sapiens, UniProt O43293); assay: KINOMEscan; assay type: binding; conditions: read-out: % Ctrl
T2 construct: purchased DiscoveRx KINOMEscan

CDK4 = biological target: T3, CDK4 (Homo sapiens, UniProt P11802); assay: KINOMEscan; assay type: binding; conditions: read-out: % Ctrl
T3 construct: purchased DiscoveRx KINOMEscan
T3 sequence (P11802 whole entry): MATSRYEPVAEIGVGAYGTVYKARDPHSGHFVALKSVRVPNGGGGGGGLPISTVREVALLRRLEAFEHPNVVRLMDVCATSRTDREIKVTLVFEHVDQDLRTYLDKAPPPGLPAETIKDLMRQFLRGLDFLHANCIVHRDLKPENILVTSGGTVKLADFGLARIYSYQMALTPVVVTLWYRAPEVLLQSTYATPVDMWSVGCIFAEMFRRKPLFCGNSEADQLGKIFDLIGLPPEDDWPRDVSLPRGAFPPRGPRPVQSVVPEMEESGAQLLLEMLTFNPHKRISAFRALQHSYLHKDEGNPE

DMPK2 = biological target: T4, DMPK2 (Homo sapiens, UniProt Q6DT37); assay: KINOMEscan; assay type: binding; conditions: read-out: % Ctrl
T4 construct: purchased DiscoveRx KINOMEscan

PFCDPK1(P.falciparum) = biological target: T5, PFCDPK1(P.falciparum) (Plasmodium falciparum, UniProt P62344); assay: KINOMEscan; assay type: binding; conditions: read-out: % Ctrl
T5 construct: purchased DiscoveRx KINOMEscan
T5 sequence (P62344 whole entry): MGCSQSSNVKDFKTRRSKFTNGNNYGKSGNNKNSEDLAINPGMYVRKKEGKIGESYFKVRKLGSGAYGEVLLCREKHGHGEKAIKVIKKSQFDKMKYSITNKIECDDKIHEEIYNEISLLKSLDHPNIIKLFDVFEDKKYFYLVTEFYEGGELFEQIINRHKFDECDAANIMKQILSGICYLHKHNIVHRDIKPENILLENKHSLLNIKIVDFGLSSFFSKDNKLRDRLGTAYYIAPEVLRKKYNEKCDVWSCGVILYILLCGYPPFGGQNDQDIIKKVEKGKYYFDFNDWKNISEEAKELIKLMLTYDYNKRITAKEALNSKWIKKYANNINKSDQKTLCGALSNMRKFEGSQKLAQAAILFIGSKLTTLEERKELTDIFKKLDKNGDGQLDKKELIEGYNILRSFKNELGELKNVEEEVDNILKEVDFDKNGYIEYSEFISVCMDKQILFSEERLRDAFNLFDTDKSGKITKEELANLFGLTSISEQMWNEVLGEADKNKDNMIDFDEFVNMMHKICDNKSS

PFTK1 = biological target: T6, PFTK1 (Homo sapiens, UniProt O94921); assay: KINOMEscan; assay type: binding; conditions: read-out: % Ctrl
T6 construct: purchased DiscoveRx KINOMEscan

CSF1R = biological target: T7, CSF1R (Homo sapiens, UniProt P07333); assay: KINOMEscan; assay type: binding; conditions: read-out: % Ctrl
T7 construct: purchased DiscoveRx KINOMEscan

MEK2 = biological target: T8, MEK2 (Homo sapiens, UniProt P36507); assay: KINOMEscan; assay type: binding; conditions: read-out: % Ctrl
T8 construct: purchased DiscoveRx KINOMEscan

RAF1 = biological target: T9, RAF1 (Homo sapiens, UniProt P04049); assay: KINOMEscan; assay type: binding; conditions: read-out: % Ctrl
T9 construct: purchased DiscoveRx KINOMEscan
T9 sequence (P04049 whole entry): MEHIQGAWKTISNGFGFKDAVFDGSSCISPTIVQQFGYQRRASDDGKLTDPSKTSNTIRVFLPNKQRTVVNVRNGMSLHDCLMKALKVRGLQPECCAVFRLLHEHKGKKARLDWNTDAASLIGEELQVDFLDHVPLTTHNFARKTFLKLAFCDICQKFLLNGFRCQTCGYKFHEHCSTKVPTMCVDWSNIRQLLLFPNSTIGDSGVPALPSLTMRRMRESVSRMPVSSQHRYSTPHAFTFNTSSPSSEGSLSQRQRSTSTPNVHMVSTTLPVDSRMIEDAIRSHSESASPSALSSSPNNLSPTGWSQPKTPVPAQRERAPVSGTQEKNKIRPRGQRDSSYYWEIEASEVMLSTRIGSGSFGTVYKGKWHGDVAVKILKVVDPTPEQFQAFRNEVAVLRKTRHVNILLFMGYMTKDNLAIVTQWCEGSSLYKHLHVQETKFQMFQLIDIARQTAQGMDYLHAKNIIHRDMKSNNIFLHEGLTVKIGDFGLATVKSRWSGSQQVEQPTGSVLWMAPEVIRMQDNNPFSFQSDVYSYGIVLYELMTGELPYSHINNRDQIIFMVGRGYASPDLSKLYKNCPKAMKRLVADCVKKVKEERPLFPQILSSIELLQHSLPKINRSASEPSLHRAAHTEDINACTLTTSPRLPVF

PAK3 = biological target: T10, PAK3 (Homo sapiens, UniProt O75914); assay: KINOMEscan; assay type: binding; conditions: read-out: % Ctrl
T10 construct: purchased DiscoveRx KINOMEscan
T10 sequence (O75914 whole entry): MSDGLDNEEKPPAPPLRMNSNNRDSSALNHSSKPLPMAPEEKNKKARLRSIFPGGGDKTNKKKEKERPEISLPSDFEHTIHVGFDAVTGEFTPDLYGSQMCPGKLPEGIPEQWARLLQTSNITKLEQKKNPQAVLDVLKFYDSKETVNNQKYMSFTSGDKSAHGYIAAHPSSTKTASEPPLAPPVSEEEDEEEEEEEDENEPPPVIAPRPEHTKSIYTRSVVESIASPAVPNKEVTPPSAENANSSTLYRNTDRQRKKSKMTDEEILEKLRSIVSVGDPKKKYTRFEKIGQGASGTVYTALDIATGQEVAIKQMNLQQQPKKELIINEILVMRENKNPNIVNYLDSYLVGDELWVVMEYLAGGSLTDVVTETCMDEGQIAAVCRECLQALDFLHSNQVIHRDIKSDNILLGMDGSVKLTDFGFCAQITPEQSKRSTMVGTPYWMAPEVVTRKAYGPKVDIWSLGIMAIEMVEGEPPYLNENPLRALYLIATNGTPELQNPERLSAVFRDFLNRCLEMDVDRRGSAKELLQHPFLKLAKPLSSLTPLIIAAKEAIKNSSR

CDK5 = biological target: T11, CDK5 (Homo sapiens, UniProt Q00535); assay: KINOMEscan; assay type: binding; conditions: read-out: % Ctrl
T11 construct: purchased DiscoveRx KINOMEscan
T11 sequence (Q00535 whole entry): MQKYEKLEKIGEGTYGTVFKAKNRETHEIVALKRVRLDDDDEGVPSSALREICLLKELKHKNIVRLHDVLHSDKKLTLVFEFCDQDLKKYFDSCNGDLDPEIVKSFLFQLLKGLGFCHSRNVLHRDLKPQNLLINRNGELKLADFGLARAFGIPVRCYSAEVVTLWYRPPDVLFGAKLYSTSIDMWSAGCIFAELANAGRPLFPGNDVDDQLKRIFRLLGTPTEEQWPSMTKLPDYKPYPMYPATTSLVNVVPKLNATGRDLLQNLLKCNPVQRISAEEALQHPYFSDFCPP

CHEK2 = biological target: T12, CHEK2 (Homo sapiens, UniProt O96017); assay: KINOMEscan; assay type: binding; conditions: read-out: % Ctrl
T12 construct: purchased DiscoveRx KINOMEscan

TAOK2 = biological target: T13, TAOK2 (Homo sapiens, UniProt Q9UL54); assay: KINOMEscan; assay type: binding; conditions: read-out: % Ctrl
T13 construct: purchased DiscoveRx KINOMEscan

PIP5K1A = biological target: T14, PIP5K1A (Homo sapiens, UniProt Q99755); assay: KINOMEscan; assay type: binding; conditions: read-out: % Ctrl
T14 construct: purchased DiscoveRx KINOMEscan
T14 sequence (Q99755 whole entry): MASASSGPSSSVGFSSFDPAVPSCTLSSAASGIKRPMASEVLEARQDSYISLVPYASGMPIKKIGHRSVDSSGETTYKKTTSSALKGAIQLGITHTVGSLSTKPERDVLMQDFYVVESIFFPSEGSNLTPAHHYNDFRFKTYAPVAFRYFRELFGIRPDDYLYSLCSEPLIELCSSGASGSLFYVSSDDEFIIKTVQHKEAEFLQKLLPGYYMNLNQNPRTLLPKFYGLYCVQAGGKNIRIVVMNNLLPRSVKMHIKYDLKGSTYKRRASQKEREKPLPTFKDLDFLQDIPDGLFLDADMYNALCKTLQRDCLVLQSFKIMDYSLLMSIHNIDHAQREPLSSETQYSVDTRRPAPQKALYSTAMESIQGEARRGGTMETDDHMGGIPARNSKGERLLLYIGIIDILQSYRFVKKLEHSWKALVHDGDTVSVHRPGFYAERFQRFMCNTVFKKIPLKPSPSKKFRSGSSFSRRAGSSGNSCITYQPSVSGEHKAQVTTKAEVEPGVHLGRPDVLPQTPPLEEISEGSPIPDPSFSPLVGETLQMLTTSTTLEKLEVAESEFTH

ABL1(F317I)-P = biological target: T15, ABL1(F317I)-P (Homo sapiens, UniProt P00519, F317I); assay: KINOMEscan; assay type: binding; conditions: read-out: % Ctrl
T15 construct: purchased DiscoveRx KINOMEscan
T15 sequence (P00519 whole entry F317I): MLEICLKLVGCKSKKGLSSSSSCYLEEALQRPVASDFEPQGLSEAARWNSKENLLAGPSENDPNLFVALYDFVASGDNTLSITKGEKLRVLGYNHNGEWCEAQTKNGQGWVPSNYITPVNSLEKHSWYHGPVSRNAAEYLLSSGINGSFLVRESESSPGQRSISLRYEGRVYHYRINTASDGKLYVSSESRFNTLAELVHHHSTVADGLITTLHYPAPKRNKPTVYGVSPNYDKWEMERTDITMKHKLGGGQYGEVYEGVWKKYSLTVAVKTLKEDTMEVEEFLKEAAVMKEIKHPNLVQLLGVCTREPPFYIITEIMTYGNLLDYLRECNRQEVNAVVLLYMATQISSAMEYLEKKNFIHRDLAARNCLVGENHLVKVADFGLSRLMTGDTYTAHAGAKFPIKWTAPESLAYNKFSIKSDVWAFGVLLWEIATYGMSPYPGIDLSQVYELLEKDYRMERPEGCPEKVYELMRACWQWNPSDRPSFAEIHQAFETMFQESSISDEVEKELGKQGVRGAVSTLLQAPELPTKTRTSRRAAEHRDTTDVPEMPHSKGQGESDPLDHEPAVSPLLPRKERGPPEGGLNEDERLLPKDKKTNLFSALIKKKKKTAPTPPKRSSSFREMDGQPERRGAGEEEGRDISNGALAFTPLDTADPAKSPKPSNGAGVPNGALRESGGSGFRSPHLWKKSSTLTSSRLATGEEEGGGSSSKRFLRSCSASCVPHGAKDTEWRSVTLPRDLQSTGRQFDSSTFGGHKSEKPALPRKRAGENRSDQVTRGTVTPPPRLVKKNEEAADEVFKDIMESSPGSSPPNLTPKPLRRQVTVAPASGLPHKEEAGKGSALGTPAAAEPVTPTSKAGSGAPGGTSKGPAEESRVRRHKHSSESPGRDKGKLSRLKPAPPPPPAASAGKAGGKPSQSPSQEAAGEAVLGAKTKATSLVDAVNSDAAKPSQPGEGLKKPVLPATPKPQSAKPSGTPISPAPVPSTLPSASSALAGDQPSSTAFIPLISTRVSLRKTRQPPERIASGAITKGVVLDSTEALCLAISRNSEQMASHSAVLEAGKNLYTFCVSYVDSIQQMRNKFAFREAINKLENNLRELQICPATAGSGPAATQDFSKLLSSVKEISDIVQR

BRSK1 = biological target: T16, BRSK1 (Homo sapiens, UniProt Q8TDC3); assay: KINOMEscan; assay type: binding; conditions: read-out: % Ctrl
T16 construct: purchased DiscoveRx KINOMEscan
T16 sequence (Q8TDC3 whole entry): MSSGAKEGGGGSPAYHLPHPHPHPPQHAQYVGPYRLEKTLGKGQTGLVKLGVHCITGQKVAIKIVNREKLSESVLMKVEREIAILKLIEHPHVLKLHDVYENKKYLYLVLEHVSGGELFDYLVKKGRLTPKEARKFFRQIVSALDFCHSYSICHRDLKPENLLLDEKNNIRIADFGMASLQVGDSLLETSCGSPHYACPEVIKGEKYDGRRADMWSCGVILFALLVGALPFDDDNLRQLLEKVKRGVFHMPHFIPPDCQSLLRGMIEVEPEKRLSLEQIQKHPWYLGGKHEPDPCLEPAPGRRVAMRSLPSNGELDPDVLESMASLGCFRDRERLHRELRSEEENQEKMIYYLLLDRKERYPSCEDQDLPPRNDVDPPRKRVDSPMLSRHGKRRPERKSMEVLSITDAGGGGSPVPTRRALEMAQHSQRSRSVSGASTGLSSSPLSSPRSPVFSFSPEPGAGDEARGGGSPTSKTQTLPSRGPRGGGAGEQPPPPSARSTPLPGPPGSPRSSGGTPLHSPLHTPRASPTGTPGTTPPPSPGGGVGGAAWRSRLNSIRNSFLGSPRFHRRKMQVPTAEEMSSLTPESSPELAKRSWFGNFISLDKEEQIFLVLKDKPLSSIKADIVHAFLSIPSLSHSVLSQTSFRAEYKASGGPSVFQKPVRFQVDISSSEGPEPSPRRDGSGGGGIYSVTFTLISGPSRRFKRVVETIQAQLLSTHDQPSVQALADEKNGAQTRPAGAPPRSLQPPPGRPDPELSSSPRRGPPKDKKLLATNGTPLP

WNK1 = biological target: T17, WNK1 (Homo sapiens, UniProt Q9H4A3); assay: KINOMEscan; assay type: binding; conditions: read-out: % Ctrl
T17 construct: purchased DiscoveRx KINOMEscan

With `COc1nc2ccc(NCC3CCN(C)CC3)nn2c1C(=O)Nc1cccc(OC(F)(F)F)c1` [Cpd 1] the pEC50 (PDAC1 3D spheres) was about 5.54, the sphere-forming capacity (PDAC4 cultures) was “decreased sphere forming capacity” and the sphere-forming capacity (PDAC2 cultures) was “decreased sphere forming capacity”.
Work on `CN1CCC(CNc2ccc3ncc(C(=O)Nc4cccc(OC(F)(F)F)c4)n3n2)CC1` [Cpd 2] yielded a remaining binding at 1 µM (DCAMKL2) of 97%, a remaining binding at 1 µM (DAPK3) of 75% and a remaining binding at 1 µM (CDK4) of 100%. For the same compound, the remaining binding at 1 µM (DMPK2) was 97%, the remaining binding at 1 µM (PFCDPK1(P.falciparum)) was 88% and the remaining binding at 1 µM (PFTK1) was 97%. It also gave a remaining binding at 1 µM (CSF1R) of 100%, a remaining binding at 1 µM (MEK2) of 90% and a remaining binding at 1 µM (RAF1) of 100%. For the same compound, the remaining binding at 1 µM (PAK3) was 98%, the remaining binding at 1 µM (CDK5) was 100% and the remaining binding at 1 µM (CHEK2) was 95%. The remaining binding at 1 µM (TAOK2) was 100%, the remaining binding at 1 µM (PIP5K1A) was 100% and the remaining binding at 1 µM (ABL1(F317I)-P) was 94%. It also gave a remaining binding at 1 µM (BRSK1) of 100% and a remaining binding at 1 µM (WNK1) of 100%.
